Experimental data published in ChEMBL document CHEMBL1148157, “An analysis of cytotoxic botanical formulations used in the traditional medicine of ancient Persia as abortifacients” (J Nat Prod, 2004).
≈ marks a conversion by molar mass, not a printed value.

Experiments:
Assay type in all cases: functional, cell-based
P388 = test: Growth inhibition of mouse P388 cells
HT-29 = test: Growth inhibition of human HT29 cells
[1] = Growth inhibition of human breast cancer cells; settings: Cancer cell lines
[2] = Growth inhibition of human lung cancer cells; settings: Cancer cell lines
[3] = Growth inhibition of human CNS cancer cells; settings: Cancer cell lines
[4] = Growth inhibition of human colon cancer cells; settings: Cancer cell lines
[5] = Growth inhibition of human prostate cancer cells; settings: cancer cell lines

Structure (SMILES) | IC50 (P388) [ng/mL] | IC50 (HT-29) [ng/mL] | IC50 [1] [nM] | IC50 [2] [nM] | IC50 [3] [nM] | IC50 [4] [nM] | IC50 [5] [nmol]
COc1cc([C@@H]2c3cc4c(cc3C[C@H]3COC(=O)[C@@H]32)OCO4)cc(OC)c1OC [DESOXYPODOPHYLLOTOXIN] | 2.5 (≈ 6.27 nM) | 2.5 (≈ 6.27 nM) | – | – | – | – | –
COc1cc([C@@H]2c3cc4c(c(O)c3C[C@H]3COC(=O)[C@@H]32)OCO4)cc(OC)c1OC [BETA-PELTATIN A] | 2.5 (≈ 6.03 nM) | 2.5 (≈ 6.03 nM) | – | – | – | – | –
CC(=O)OC(C)(C)/C=C/C(=O)[C@](C)(O)[C@H]1[C@H](O)C[C@@]2(C)[C@@H]3CC=C4[C@H](C[C@H](O)C(=O)C4(C)C)[C@]3(C)C(=O)C[C@]12C [CUCURBITACIN B] | – | – | < 400 | < 400 | < 400 | < 400 | –
CC(=O)OC(C)(C)/C=C/C(=O)[C@](C)(O)[C@H]1[C@H](O)C[C@@]2(C)[C@@H]3CC=C4[C@@H](C=C(O)C(=O)C4(C)C)[C@]3(C)C(=O)C[C@]12C [CUCURBITACIN E] | – | – | < 400 | < 400 | < 400 | < 400 | 7
CC(C)(O)/C=C/C(=O)[C@](C)(O)[C@H]1[C@H](O)C[C@@]2(C)[C@@H]3CC=C4[C@@H](C[C@H](O)C(=O)C4(C)C)[C@]3(C)C(=O)C[C@]12C [CUCURBITACIN D] | – | – | < 400 | < 400 | < 400 | < 400 | –
CC(C)(O)/C=C/C(=O)[C@](C)(O)[C@H]1[C@H](O)C[C@@]2(C)[C@@H]3CC=C4[C@@H](C=C(O)C(=O)C4(C)C)[C@]3(C)C(=O)C[C@]12C [CUCURBITACIN I] | – | – | < 400 | < 400 | < 400 | < 400 | –
